This note sets out measurements from US9102719B2, “SOGA polynucleotides and polypeptides and uses thereof” (University of North Carolina at Chapel Hill, priority 2009, dated 2015).

Data set [1] deals with SOGA. The class given is cell-based, mouse. How it is done: (§1) Mouse livers were perfused with a Krebs-Ringer-HEPES buffer containing collagenase (Sigma-Aldrich). Livers were isolated and cells were dispersed by gentle shaking and filtered through sterile nylon gauze. Cells were washed twice with sterile phosphate-buffered saline and purified by centrifugation in 50% isotonic Percoll (Sigma-Aldrich). Cells were resuspended with Krebs-Ringer-HEPES+Ca^2+ buffer to a total volume of 10 ml. Viability was validated via trypan blue exclusion and routinely exceeded 90%. Freshly isolated mouse hepatocytes were plated at 10^5 cells per well in 12-well culture plates coated with rat tail collagen I (BD Biosciences). […] SOGA siRNA, AICAR (500 μM) or […] (10 nM) were introduced to the media 48 hours before the measurement of glucose production. siRNA sequences corresponding to base pairs 333-351 and 1988-2007 on the open reading frame of murine SOGA were selected using a rational design algorithm (Invitrogen). […] Glucose was measured by colorimetric assay (Autokit Glucose CII) (Brooks et al., J. Biol. Chem. 282:35069 (2007)). Valine in the medium was measured by a UPLC (Waters) coupled TSQ-Quantum ultra triple quad mass analyzer (ThermoFinigan) in the Biomarkers Facility Core at UNC. Valine was measured in selected reaction monitoring mode (SRM) using the MS/MS transition of 118→72.

The subject of data set [2] is ob/ob mice. The data set is described as follows: Pioglitazone treatment of diabetic ob/ob mice. The format is in vivo, mouse. Conditions: after 4 days of treatment. How it is done: Mice were housed in ventilated isolator cage systems in a pathogen-free barrier facility maintained at 23° C., 55% humidity on a 12-h light/12-h dark cycle. Mice received a standard chow diet consisting of 73% carbohydrate, 18% protein, 4% fat and 5% ash (Purina). Young (3-6 month old) female C57B1/6J calorie restricted (CR) and ad libitum fed (AL) mice were maintained as previously described (Combs et al., Diabetes 52:268 (2003)). Adjustments were made to ensure that CR mice received 70% of the ad libitum food intake. Blood samples were collected at 1300 from the tail tip using heparinized capillary tubes (Fisher) and stored at −20° C. Male ob/ob mice (FVB background strain) received a daily dose of pioglitazone at 0.6 mg/kg BW in 0.025% (w/w) carboxymethylcellulose by oral gavage for 4 days. Control mice received carboxymethylcellulose by oral gavage for 4 days. Blood was collected from the tail tip on day 5 and analyzed for glucose, adiponectin and 25 kDa SOGA. Immediately after the collection of blood samples, ob/ob mice were sacrificed by cervical dislocation for tissue collection. Northern blot analysis for SOGA mRNA and 18S RNA was performed using 20 μg of liver RNA. NOD mice were bred and housed as previously described (Wong et al., J. Immunol. 176:1637 (2006)). Where indicated, diabetic NOD mice were injected with 5 units of insulin (NPH Human Insulin, Isophane Suspension; 100 U/ml Novolin; Novo Nordisk) 24 hours prior to blood collection. Adiponectin transgenic mice were produced as previously described (Combs et al., Endocrinology 145:367 (2004)). Glucose was measured by colorimetric assay. Adiponectin and SOGA were measured by SDS-PAGE analysis using 1 μl of plasma. […] Experimental procedures were approved by IACUC.

The test system of data set [3] is NOD mice. The data set is described as follows: Insulin injection in diabetic NOD mice. The class given is in vivo, mouse. Conditions: single injection of insulin 24 hours earlier. How it is done: Mice were housed in ventilated isolator cage systems in a pathogen-free barrier facility maintained at 23° C., 55% humidity on a 12-h light/12-h dark cycle. Mice received a standard chow diet consisting of 73% carbohydrate, 18% protein, 4% fat and 5% ash (Purina). Young (3-6 month old) female C57B1/6J calorie restricted (CR) and ad libitum fed (AL) mice were maintained as previously described (Combs et al., Diabetes 52:268 (2003)). Adjustments were made to ensure that CR mice received 70% of the ad libitum food intake. Blood samples were collected at 1300 from the tail tip using heparinized capillary tubes (Fisher) and stored at −20° C. Male ob/ob mice (FVB background strain) received a daily dose of pioglitazone at 0.6 mg/kg BW in 0.025% (w/w) carboxymethylcellulose by oral gavage for 4 days. Control mice received carboxymethylcellulose by oral gavage for 4 days. Blood was collected from the tail tip on day 5 and analyzed for glucose, adiponectin and 25 kDa SOGA. Immediately after the collection of blood samples, ob/ob mice were sacrificed by cervical dislocation for tissue collection. Northern blot analysis for SOGA mRNA and 18S RNA was performed using 20 μg of liver RNA. NOD mice were bred and housed as previously described (Wong et al., J. Immunol. 176:1637 (2006)). […] Glucose was measured by colorimetric assay. Adiponectin and SOGA were measured by SDS-PAGE analysis using 1 μl of plasma. […]

Data set [4] relates to primary murine hepatocytes. The data set is described as follows: Hepatocyte glucose production (colorimetric assay). The class given is cell-based, mouse. Conditions: adiponectin exposure (adipocyte conditioned media). On the procedure:
as §1

With `NC(=O)c1ncn([C@@H]2O[C@H](CO)[C@@H](O)[C@H]2O)c1N` [AICAR, N1-(β-D-ribofuranosyl)-5-aminoimidazole-4-carboxamide], the “effect on SOGA level (intracellular and extracellular)” value in data set [1] (500 μM AICAR, with or without adiponectin, n=4 per group) is “decrease in SOGA that was blocked by adiponectin exposure”.
On to `CCc1ccc(CCOc2ccc(CC3SC(=O)NC3=O)cc2)nc1` (centres unmarked) [Pioglitazone, pioglitazone], for which the “concentration of plasma glucose” value in data set [2] (untreated ob/ob mice 450±18 mg/dl, p<0.05) stood at 155 ± 8 mg/dL. The “elevation of circulating adiponectin” value in data set [2] (daily oral gavage) turned out to be 3 fold. Also, the “increase of SOGA mRNA in the liver” value in data set [2] (daily oral gavage, SOGA mRNA/18S RNA) is 40%. Further, the “elevation of circulating SOGA” value in data set [2] (daily oral gavage, plasma 25 kDa SOGA) is reported as 3 fold.
In the case of “insulin: NPH Human Insulin, Isophane Suspension (Novolin; Novo Nordisk)”, in data set [3], the “induction of SOGA (circulating 25 kDa SOGA)” value was 2 fold.

B1: Adiponectin: hormone provided from adipocyte conditioned media with or without adiponectin (protein, UniProt Q15848 19-244, looked up)
Adiponectin: ETTTQGPGVLLPLPKGACTGWMAGIPGHPGHNGAPGRDGRDGTPGEKGEKGDPGLIGPKGDIGETGVPGAEGPRGFPGIQGRKGEPGEGAYVYRSAFSVGLETYVTIPNMPIRFTKIFYNQQNHYDGSTGKFHCNIPGLYYFAYHITVYMKDVKVSLFKKDKAMLFTYDQYQENNVDQASGSVLLHLEVGDQVWLQVYGEGERNGLYADNDNDSTFTGFLLYHDTN
modifications: in adipocyte conditioned media
Consider B1, for which the “increase of SOGA in primary hepatocytes” value in data set [1] is on record as 40%. Moreover, the “reduction in glucose production” value in data set [4] came out at 50%.
